System: ovalbumin-sensitized guinea pigs
Test: Guinea pig allergic rhinitis model: intranasal pressure after nasal ovalbumin challenge
Format: in vivo
Settings: 60 minutes prior to ovalbumin 1% challenge, AUC 0-30 min
Protocol: Male Hartley guinea pigs (250-500 g) purchased from Charles River (St-Constant, Qc, Canada) were used. They were housed in a temperature and humidity controlled environment, in groups of four or five with food and water available ad libitum. Experimental procedures were approved by the Animal Care Committee at Merck Frosst Centre for Therapeutic Research, in accordance with the guidelines of the Canadian Council on Animal Care.
Sensitization: The animals were injected intraperitoneally with 0.5 ml of an ovalbumin solution (100 μg/ml) containing 100 mg/ml aluminum hydroxide in 0.9% saline. […]
Following the surgical preparation, gallamine (2 mg/kg, i.v.) was administered to suppress spontaneous breathing. […] The changes in the intranasal pressure were monitored through a pressure transducer (Validyne DP-45, membrane 6-26, Validyne Corp., Northridge, Calif.) connected to a side arm of the nasal cannula. Values were recorded every 5 seconds using a data acquisition system (Modular Instruments, Malvern, Pa.). […]
The effects of test compounds were evaluated on the increased intranasal pressure following a nasal challenge with an aerosol of ovalbumin 1% for 3 minutes. […] The changes in intranasal pressure were recorded for the 30 minutes following the nasal challenge, using the peak response. […]

Structure (SMILES) | effect on the increase in intranasal pressure induced by ovalbumin aerosol (Compound I 1 mg/kg i.p. alone) | effect on the increase in intranasal pressure induced by ovalbumin aerosol (mepyramine 5 mg/kg i.p. alone)
C[S@+]([O-])c1cccc2c3c(n(Cc4ccc(Cl)cc4)c12)[C@@H](CC(=O)O)CCC3 [Compound I, 2-[(1R)-9-(4-chlorobenzyl)-8-((S)-methylsulfinyl)-2,3,4,9-tetrahydro-1H-carbazol-1-yl]acetic acid] | no significant effect | –
COc1ccc(CN(CCN(C)C)c2ccccn2)cc1 [mepyramine] | – | no significant effect

Reference: patent US20010051624A1, “Method and compositions for the treatment of allergic conditions using PGD2 receptor antagonists” (priority 2000, published 2001)
